Assay results taken from patent US20250032439A1, “NOVEL COMPOSITIONS” (DSM IP ASSETS B.V., priority 2021, published 2025).

Target: T1, human 5-HT2B receptor (Homo sapiens, UniProt P41595)
T1 construct: expressed in transfected cells; host or cells: CHO cells
Experiment: Antagonism of human serotonin 5-HT2B, IP1 functional assay (HTRF) in transfected CHO cells
Assay type: cell-based
Conditions: inhibition of IP1 production induced by 30 nM 5-HT
Method: The human 5-HT2B receptor expressed in transfected CHO cells is used to determine antagonistic effects by measuring the effects on agonist-induced inositol monophosphate (IP1) production using the HTRF® detection method (Porter et al., 1999, Brit. J. Pharmacol., 128: 13-20; Trinquet et al., 2006, Analytical Biochemistry 358, 126-135) The CHO cells can be suspended in a buffer containing 10 mM Hepes/NaOH (pH 7.4), 4.2 mM KCl, 146 mM NaCl, 1 mM CaCl2, 0.5 mM MgCl2, 5.5 mM glucose and 50 mM LiCl, then distributed in microtiter plates at a density of about 20000 cells/well and preincubated for 5 min at room temperature in the presence of buffer (basal control), test compound, i.e. reference samples and inventive mixture of retinyl acetate (“retAc”) (see Table 1) or a very potent known reference antagonist SB-206553. Thereafter, the reference agonist 5-HT (serotonin) is added at a final concentration of 30 nM. […] Following 30 min incubation at 37° C., the cells are lysed and the fluorescence acceptor (D2-labeled IP1) and fluorescence donor (anti-IP1 antibody labeled with europium cryptate) are added. After 60 min at room temperature, the fluorescence transfer is measured at wavelengths Ex=337 nm and Em=620 and 665 nm using a microplate reader (Envision, Perkin Elmer). The IP1 concentration can be determined by dividing the signal measured at 665 nm by that measured at 620 nm (ratio). The results are expressed as a percent inhibition of the control response to 30 nM 5-HT. Mean values, standard deviation are calculated and used in a dose response model to calculate the IC50 values.
The standard reference antagonist SB-206553 is tested in each experiment at several concentrations to generate a concentration-response curve. The dose response curve is used to calculate the IC50 value. The same procedure is done for RetAc mix and the Reference RetAc to determine the IC50 values.

T1 sequence (P41595 whole entry): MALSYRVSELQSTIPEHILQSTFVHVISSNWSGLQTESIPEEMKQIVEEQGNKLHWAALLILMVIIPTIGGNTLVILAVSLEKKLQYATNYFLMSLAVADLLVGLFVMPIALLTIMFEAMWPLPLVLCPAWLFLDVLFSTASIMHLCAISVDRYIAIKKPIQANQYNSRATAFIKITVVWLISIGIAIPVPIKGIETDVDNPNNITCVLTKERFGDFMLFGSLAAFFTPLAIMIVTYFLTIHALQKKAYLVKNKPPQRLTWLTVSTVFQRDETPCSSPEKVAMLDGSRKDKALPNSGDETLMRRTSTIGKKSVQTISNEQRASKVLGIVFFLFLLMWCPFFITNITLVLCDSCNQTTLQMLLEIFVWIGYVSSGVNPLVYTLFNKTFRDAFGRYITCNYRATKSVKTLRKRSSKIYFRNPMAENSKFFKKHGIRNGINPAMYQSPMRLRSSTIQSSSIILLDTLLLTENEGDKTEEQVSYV

For `CC(=O)OC/C=C(C)/C=C/C=C(C)/C=C/C1=C(C)CCCC1(C)C` [RetAc mix, retinyl acetate], the IC50 was 5.2 µM.
For `Cn1ccc2cc3c(cc21)CCN3C(=O)Nc1cccnc1` [SB-206553], the IC50 was 0.026 µM.
In the case of `CC(=O)OC/C=C(C)/C=C/C=C(C)/C=C/C1=C(C)CCCC1(C)C` [Reference retAc, retinyl acetate], the IC50 is reported as 12 µM.
